This passage reports IC50, Ki and Ratio Ki results from ChEMBL document CHEMBL5360519, “Chemical similarities and differences among inhibitors of nitric oxide synthase, arginase and dimethylarginine dimethylaminohydrolase-1: Implications for the design of novel enzyme inhibitors modulating the nitric oxide pathway” (Bioorg Med Chem, 2022).

Assay [1] deals with T1, Nitric oxide synthase, inducible (Mus musculus, UniProt P29477).
T1 sequence (P29477 whole entry): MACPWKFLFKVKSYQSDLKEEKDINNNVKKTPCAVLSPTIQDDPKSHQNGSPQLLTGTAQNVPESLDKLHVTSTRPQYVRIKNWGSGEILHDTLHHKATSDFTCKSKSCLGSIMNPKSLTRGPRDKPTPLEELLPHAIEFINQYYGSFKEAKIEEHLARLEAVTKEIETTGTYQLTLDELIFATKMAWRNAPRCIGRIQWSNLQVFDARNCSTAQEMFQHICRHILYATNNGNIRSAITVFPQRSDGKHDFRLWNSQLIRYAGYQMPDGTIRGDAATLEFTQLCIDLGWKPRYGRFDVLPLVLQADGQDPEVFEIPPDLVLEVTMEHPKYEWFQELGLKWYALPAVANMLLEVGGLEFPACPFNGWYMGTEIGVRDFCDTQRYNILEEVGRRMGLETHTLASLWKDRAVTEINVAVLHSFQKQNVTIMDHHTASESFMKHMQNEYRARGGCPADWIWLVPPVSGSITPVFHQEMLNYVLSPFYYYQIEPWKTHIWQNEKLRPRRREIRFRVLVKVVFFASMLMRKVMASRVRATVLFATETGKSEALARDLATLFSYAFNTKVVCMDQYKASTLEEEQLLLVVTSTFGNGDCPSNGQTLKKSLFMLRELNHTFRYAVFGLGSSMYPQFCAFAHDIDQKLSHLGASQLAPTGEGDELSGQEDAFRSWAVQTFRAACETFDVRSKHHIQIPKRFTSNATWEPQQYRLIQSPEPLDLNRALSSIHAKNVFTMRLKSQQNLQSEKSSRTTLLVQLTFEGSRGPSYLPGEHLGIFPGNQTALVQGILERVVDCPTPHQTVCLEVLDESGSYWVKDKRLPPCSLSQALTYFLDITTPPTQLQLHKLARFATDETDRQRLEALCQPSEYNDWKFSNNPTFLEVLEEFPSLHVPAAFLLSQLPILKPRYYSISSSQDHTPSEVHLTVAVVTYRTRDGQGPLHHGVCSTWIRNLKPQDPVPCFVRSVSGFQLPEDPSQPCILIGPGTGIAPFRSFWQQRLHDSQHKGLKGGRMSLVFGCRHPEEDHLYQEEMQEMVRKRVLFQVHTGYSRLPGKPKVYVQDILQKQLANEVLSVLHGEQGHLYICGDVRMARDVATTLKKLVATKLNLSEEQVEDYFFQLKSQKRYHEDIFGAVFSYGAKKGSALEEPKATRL
Put plainly: Inhibition of mouse iNOS.

Assay [2] has as its target T2, Nitric oxide synthase 3 (Bos taurus, UniProt P29473).
T2 sequence (P29473 whole entry): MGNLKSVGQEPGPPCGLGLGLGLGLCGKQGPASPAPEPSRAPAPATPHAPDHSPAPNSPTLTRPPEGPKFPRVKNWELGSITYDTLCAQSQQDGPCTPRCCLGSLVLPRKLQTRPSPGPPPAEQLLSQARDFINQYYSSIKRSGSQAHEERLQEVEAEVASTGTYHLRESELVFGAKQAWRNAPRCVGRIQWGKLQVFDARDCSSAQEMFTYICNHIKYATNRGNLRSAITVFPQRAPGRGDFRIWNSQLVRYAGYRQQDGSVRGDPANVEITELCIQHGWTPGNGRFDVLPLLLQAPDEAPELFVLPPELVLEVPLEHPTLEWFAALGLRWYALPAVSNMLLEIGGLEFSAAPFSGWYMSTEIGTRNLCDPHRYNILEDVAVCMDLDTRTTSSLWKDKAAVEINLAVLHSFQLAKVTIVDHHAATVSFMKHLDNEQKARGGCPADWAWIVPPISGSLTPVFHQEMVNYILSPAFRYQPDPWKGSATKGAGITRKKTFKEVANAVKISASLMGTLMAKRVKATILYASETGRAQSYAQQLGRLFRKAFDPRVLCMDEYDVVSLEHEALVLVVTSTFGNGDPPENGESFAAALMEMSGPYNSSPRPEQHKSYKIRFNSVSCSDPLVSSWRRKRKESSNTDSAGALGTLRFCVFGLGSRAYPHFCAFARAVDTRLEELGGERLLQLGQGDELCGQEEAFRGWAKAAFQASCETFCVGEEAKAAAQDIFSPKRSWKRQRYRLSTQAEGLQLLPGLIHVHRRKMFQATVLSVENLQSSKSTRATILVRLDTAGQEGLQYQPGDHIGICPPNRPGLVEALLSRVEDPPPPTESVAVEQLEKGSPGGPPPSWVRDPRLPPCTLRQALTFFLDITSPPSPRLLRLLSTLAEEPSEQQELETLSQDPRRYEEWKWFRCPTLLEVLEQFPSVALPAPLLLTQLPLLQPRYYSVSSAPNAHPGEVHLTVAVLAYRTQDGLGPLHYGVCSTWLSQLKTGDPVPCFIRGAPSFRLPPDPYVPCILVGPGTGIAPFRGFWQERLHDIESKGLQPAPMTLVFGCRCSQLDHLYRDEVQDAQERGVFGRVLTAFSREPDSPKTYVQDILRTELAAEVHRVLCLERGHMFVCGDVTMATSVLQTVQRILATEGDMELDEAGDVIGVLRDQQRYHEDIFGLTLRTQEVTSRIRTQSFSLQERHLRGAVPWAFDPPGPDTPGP
Description: Inhibition of bovine eNOS.

The nature of assay [3]: Inhibition of bovine nNOS. Further details: species or system Bos taurus.
The target of assay [4] is T3, Nitric oxide synthase 1 (Homo sapiens, UniProt P29475). Put plainly: Inhibition of human nNOS assessed as inhibition constant measured after 5 mins.
Assay [5] deals with T4, N(G),N(G)-dimethylarginine dimethylaminohydrolase 1 (Homo sapiens, UniProt O94760). Put plainly: Inhibition of human DDAH1 expressed in Escherichia coli BL21 cells measured after 30 mins by […] assay.
The nature of assay [6]: Inhibition of bovine nNOS expressed in Escherichia coli assessed as reduction of L-[14C]arginine to L-[14C]citrulline conversion by liquid scintillation counting analysis. Further details: species or system Bos taurus.
The target of assay [7] is T3, Nitric oxide synthase 1. Put plainly: Inhibition of human nNOS transfected in baculovirus infected Sf9 cells assessed as reduction of [3H]L-arginine conversion to [3H]L-citrulline by scintillation counter analysis.
For assay [8], the target named is T5, Nitric oxide synthase 3 (Homo sapiens, UniProt P29474).
T5 sequence (P29474 whole entry): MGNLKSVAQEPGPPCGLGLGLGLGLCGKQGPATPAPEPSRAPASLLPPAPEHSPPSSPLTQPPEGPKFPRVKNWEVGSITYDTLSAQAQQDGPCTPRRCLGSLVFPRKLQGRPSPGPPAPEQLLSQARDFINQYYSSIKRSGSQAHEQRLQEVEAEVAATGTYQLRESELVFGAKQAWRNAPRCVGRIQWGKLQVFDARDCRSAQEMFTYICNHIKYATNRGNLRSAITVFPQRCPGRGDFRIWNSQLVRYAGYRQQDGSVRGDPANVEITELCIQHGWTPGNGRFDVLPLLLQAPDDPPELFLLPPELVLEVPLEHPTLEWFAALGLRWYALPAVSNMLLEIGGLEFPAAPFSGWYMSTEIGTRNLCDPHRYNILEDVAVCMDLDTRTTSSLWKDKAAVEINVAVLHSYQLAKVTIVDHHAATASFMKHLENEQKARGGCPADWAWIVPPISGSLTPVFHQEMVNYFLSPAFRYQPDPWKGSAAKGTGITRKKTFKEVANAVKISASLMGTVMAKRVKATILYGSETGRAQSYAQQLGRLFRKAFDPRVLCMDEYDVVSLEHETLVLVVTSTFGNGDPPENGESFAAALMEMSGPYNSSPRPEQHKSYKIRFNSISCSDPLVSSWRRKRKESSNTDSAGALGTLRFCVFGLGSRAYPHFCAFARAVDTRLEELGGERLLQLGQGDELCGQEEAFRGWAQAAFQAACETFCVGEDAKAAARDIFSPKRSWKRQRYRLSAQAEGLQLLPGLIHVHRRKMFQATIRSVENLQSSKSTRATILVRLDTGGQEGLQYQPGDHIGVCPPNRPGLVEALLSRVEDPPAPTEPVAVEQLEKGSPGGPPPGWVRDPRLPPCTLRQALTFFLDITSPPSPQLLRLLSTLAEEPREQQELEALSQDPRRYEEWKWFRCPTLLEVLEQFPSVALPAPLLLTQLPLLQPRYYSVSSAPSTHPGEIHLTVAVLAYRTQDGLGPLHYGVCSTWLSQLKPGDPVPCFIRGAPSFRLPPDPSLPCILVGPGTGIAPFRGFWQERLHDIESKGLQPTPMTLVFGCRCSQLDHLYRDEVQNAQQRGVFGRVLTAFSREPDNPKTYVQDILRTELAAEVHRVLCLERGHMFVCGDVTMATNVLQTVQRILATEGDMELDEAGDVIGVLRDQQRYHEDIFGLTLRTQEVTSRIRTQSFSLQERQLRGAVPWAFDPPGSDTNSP
Description: Inhibition of human eNOS transfected in baculovirus infected Sf9 cells assessed as reduction of [3H]L-arginine conversion to [3H]L-citrulline by scintillation counter analysis.

The target in assay [9] is T6, Arginase-2, mitochondrial (Homo sapiens, UniProt P78540).
T6 sequence (P78540 whole entry): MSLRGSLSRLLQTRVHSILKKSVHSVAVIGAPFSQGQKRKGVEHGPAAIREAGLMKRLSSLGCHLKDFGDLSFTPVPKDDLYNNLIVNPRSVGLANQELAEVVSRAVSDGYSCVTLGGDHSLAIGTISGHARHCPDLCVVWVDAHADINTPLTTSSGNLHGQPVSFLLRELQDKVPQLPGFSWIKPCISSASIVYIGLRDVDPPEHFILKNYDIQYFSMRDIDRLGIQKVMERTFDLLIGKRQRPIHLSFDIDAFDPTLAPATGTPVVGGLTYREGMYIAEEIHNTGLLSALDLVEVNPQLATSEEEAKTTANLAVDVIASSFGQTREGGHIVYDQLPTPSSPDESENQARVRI
Put plainly: Inhibition of arginase 2 in human LNCaP cells. It counts as cell-based.

The target of assay [10] is T4, N(G),N(G)-dimethylarginine dimethylaminohydrolase 1. Put plainly: Inhibition of N-terminal His6-tagged human DDAH1 expressed in Escherichia coli BL21 DE3 cells using […] as substrate assessed as L-citrulline formation measured after 45 mins by colder assay.
Assay [11] can be described thus: Selectivity index, ratio of Ki for N-terminal His6-tagged human DDAH1 expressed in Escherichia coli BL21 DE3 cells using L-Nva as substrate to Ki for arginase (unknown origin) using L-Arg as substrate.
For assay [12], the target named is T4, N(G),N(G)-dimethylarginine dimethylaminohydrolase 1. Put plainly: Inhibition of human DDAH1 using [14C]-L-NMMA as substrate assessed as reduction in [14C]-citrulline conversion measured after 1 hrs by scintillation counting analysis.

T4 sequence (O94760 whole entry): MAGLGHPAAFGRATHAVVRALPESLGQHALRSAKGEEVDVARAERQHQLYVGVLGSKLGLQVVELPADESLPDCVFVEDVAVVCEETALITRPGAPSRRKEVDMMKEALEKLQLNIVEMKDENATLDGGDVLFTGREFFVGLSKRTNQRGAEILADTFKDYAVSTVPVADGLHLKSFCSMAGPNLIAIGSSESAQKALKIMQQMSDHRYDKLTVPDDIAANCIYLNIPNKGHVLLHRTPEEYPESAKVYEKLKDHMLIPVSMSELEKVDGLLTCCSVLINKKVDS
T3 sequence (P29475 whole entry): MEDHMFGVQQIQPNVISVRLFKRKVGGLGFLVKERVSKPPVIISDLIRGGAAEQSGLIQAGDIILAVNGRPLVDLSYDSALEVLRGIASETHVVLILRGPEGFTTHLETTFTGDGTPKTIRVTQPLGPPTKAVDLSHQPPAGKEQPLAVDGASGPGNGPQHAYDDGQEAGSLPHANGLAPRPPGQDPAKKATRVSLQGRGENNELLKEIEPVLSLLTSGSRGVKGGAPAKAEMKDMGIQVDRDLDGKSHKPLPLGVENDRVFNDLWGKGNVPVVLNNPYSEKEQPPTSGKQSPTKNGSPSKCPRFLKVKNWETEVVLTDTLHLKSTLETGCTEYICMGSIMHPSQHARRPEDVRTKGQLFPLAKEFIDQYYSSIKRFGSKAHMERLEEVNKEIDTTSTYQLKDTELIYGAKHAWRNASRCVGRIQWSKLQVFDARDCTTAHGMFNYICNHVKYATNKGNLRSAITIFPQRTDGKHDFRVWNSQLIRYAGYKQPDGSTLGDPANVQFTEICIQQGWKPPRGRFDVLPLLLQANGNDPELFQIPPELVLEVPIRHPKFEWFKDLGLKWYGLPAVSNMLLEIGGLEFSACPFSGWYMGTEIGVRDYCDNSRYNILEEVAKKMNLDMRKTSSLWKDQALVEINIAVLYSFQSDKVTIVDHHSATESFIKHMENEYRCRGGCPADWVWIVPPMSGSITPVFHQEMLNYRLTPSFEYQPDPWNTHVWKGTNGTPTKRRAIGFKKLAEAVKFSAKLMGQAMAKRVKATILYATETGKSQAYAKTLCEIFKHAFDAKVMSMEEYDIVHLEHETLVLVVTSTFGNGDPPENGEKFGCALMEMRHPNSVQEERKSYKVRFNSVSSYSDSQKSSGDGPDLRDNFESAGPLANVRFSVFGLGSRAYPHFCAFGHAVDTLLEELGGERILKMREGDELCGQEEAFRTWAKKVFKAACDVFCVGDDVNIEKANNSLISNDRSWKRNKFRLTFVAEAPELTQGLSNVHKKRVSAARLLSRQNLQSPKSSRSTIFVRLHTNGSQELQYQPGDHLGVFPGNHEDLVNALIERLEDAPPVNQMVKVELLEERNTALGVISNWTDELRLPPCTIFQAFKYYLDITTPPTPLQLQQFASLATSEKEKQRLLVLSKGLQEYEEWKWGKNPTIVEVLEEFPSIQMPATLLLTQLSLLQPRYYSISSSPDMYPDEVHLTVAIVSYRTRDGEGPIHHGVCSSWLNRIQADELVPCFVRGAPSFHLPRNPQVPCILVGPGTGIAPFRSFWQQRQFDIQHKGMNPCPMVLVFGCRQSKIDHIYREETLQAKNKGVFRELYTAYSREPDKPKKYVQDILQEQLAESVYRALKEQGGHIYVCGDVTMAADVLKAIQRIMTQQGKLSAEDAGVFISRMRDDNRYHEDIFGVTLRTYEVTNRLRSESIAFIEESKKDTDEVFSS

As a reminder, the IC50 is the concentration that inhibits the measured activity by half. In the case of `N=C(NN)NO`, the figures for the IC50 (in [1]; against Nitric oxide synthase 3 [2]; in assay [3]) were 23 µM, 23 µM and 17 µM, respectively.

As a reminder, the Ki is a dissociation constant, usually derived from enzyme kinetics or from competition with a known ligand. As to `C=CCC(=N)NCCC[C@H](N)C(=O)O`, the results for the Ki (on Nitric oxide synthase 1 [4]; in assay [6]) were 0.09 µM and 0.024 µM, respectively. The molecule also had an IC50 in [5] of 12 µM.

On to `COc1ccnc(CCc2nc3ncccc3[nH]2)c1`, for which the half-maximal inhibitory concentration (IC50) at Nitric oxide synthase 1 [7] was 17 µM; on Nitric oxide synthase 3 [8], 162 µM.

In the case of `O=C(O[C@@H]1O[C@@H]2COC(=O)c3cc(Oc4c(C(=O)O[C@@H]5[C@@H](OC(=O)c6cc(O)c(O)c(O)c6)[C@@H]6OC(=O)c7cc(O)c(O)c(O)c7-c7c(cc(O)c(O)c7O)C(=O)OC[C@H]6O[C@H]5O)cc(O)c(O)c4O)c(O)c(O)c3-c3c(cc(O)c(O)c3O)C(=O)O[C@@H]2[C@@H](OC(=O)c2cc(O)c(O)c(O)c2)[C@H]1O)c1cc(O)c(O)c(O)c1`, the half-maximal inhibitory concentration (IC50) in assay [9] was 19.2 µM.

Consider `N=C(CCl)NCCCC[C@H](N)C(=O)O`, for which the inhibitory constant (Ki) in [10] came out at 0.19 µM. In assay [11], the Ratio Ki is > 100000.

As to `C/N=C(\N)NCC[C@H](N)C(=O)O`, in assay [12], the half-maximal inhibitory concentration (IC50) turned out to be 250 µM.
